USRE40086E1, “Method for treating bacterial infection with novel 7-substituted-9-substituted amino 6-demethyl-6-deoxytetracyclines” (Wyeth Holdings Corporation, priority 1991, dated 2008)

How the values were obtained:
E. coli UBMS 88-1 (tetB) = assay: MIC, agar dilution; type: cell-based; conditions: E. coli UBMS 88-1 TetB; Table IA; unit assumed
E. coli MC4100 TetB = assay: MIC, agar dilution (Table IA); type: cell-based; conditions: unit assumed
E. coli #311 (MP) = assay: MIC, agar dilution (Table IA); type: cell-based; conditions: unit assumed
[1] = system: S. aureus ATCC 29213 (Sensitive); assay: MIC, agar dilution; type: cell-based; conditions: S. aureus ATCC 29213; Table IA; unit assumed
[2] = system: S. aureus UBMS 90-2 (tetM); assay: MIC, agar dilution; type: cell-based; conditions: S. aureus UBMS 90-2 TetM; Table IA; unit assumed
[3] = system: Wild Type S30 extract, E. coli strain MRE600 (tetracycline sensitive); assay: E. coli in vitro transcription and protein translation, 35S-methionine incorporation (Table VIII)
[4] = system: S. aureus IVES 2943 (meth. resistant); assay: MIC, agar dilution; type: cell-based; conditions: S. aureus IVES 2943; Table IA; unit assumed
[5] = system: TetM S30 extract, derivative of E. coli MRE600 containing the tetM determinant; assay: E. coli in vitro transcription and protein translation, 35S-methionine incorporation (Table VIII)
E. coli PRP1 TetA = assay: MIC, agar dilution (Table IA); type: cell-based; conditions: unit assumed
S. aureus ROSE (MP) = assay: MIC, agar dilution (Table IA); type: cell-based; conditions: unit assumed
[6] = system: X. maltophilia NEMC 87210; assay: MIC, agar dilution (Table IA); type: cell-based; conditions: unit assumed
[7] = system: S. aureus UBMS 88-4 (Sensitive); assay: MIC, agar dilution; type: cell-based; conditions: S. aureus UBMS 88-4; Table IA; unit assumed
S. aureus NEMC 8769/89-4 = assay: MIC, agar dilution (Table IA); type: cell-based; conditions: unit assumed
[8] = system: Ps. acruginosa ATCC 27853; assay: MIC, agar dilution (Table IA); type: cell-based; conditions: unit assumed
E. faecalis ATCC 29212 = assay: MIC, agar dilution; type: cell-based; conditions: E. faecalis ATCC 29212; Table IA; unit assumed
E. faecalis 12201 = assay: MIC, agar dilution; type: cell-based; conditions: Enterococcus 12201; Table IA; unit assumed
E. coli J3272 Tet sens. = assay: MIC, agar dilution (Table IA); type: cell-based; conditions: unit assumed
E. coli J3272 TetD = assay: MIC, agar dilution (Table IA); type: cell-based; conditions: unit assumed
E. coli UBMS 89-1 (tetM) = assay: MIC, agar dilution; type: cell-based; conditions: E. coli UBMS 89-1 TetM; Table IA; unit assumed
[9] = system: S. haemolyticus AVAH 88-3; assay: MIC, agar dilution; type: cell-based; conditions: S. hemolyticus AVHAH 88-3; Table IA; unit assumed
[10] = system: S. aureus UBMS 88-7 (tetK); assay: MIC, agar dilution; type: cell-based; conditions: S. aureus UBMS 88-7 TetK; Table IA; unit assumed
E. coli J3272 TetC = assay: MIC, agar dilution (Table IA); type: cell-based; conditions: unit assumed
[11] = system: S. aureus UBMS 88-5 (tetM); assay: MIC, agar dilution; type: cell-based; conditions: S. aureus UBMS 88-5 TetM; Table IA; unit assumed
E. coli J2175 = assay: MIC, agar dilution (Table IA); type: cell-based; conditions: unit assumed
[12] = system: S. aureus Smith (Sensitive); assay: MIC, agar dilution; type: cell-based; conditions: S. aureus SMITH (MP); Table IA; unit assumed
E. coli UBMS 90-5 = assay: MIC, agar dilution (Table IA); type: cell-based; conditions: unit assumed
[13] = system: S. aureus UBMS 90-3 (Sensitive); assay: MIC, agar dilution; type: cell-based; conditions: S. aureus UBMS 90-3; Table IA; unit assumed
E. coli ATCC 25922 = assay: MIC, agar dilution; type: cell-based; conditions: E. coli ATCC 25922; Table IA; unit assumed
[14] = system: S. aureus UBMS 90-1 (tetM); assay: MIC, agar dilution; type: cell-based; conditions: S. aureus UBMS 90-1 TetM; Table IA; unit assumed
S. mariescens FDOR 8733 = assay: MIC, agar dilution (Table IA); type: cell-based; conditions: unit assumed
[15] = system: E. coli UBMS 89-2 (Sensitive); assay: MIC, agar dilution; type: cell-based; conditions: E. coli UBMS 89-2 Tet Sens.; Table IA; unit assumed
[16] = system: S. aureus IVES 1983 (meth. resistant); assay: MIC, agar dilution; type: cell-based; conditions: S. aureus IVES 1983; Table IA; unit assumed
E. coli BAJ9003 = assay: MIC, agar dilution (Table IA); type: cell-based; conditions: unit assumed
E. coli UBMS 90-4 (tetM) = assay: MIC, agar dilution; type: cell-based; conditions: E. coli UBMS 90-4 TetM; Table IA; unit assumed

| SMILES | Antibacterial activity (MIC) (E. coli UBMS 88-1 (tetB)) [µg/mL] | Antibacterial activity (MIC) (E. coli MC4100 TetB) [µg/mL] | Antibacterial activity (MIC) (E. coli #311 (MP)) [µg/mL] | Antibacterial activity (MIC) [1] [µg/mL] | Antibacterial activity (MIC) [2] [µg/mL] | Antibacterial activity (MIC) [4] [µg/mL] | Antibacterial activity (MIC) (E. coli PRP1 TetA) [µg/mL] | Antibacterial activity (MIC) (S. aureus ROSE (MP)) [µg/mL] | Antibacterial activity (MIC) [6] [µg/mL] | Antibacterial activity (MIC) [7] [µg/mL] | Antibacterial activity (MIC) (S. aureus NEMC 8769/89-4) [µg/mL] | Antibacterial activity (MIC) [8] [µg/mL] | Antibacterial activity (MIC) (E. faecalis ATCC 29212) [µg/mL] | Antibacterial activity (MIC) (E. faecalis 12201) [µg/mL] | Antibacterial activity (MIC) (E. coli J3272 Tet sens.) [µg/mL] | Antibacterial activity (MIC) (E. coli J3272 TetD) [µg/mL] | Antibacterial activity (MIC) (E. coli UBMS 89-1 (tetM)) [µg/mL] | Antibacterial activity (MIC) [9] [µg/mL] | Antibacterial activity (MIC) [10] [µg/mL] | Antibacterial activity (MIC) (E. coli J3272 TetC) [µg/mL] | also measured |
| --- | --- | --- | --- | --- | --- | --- | --- | --- | --- | --- | --- | --- | --- | --- | --- | --- | --- | --- | --- | --- | --- |
| CNCC(=O)Nc1cc(N(C)C)c2c(c1O)C(=O)C1=C(O)[C@]3(O)C(=O)C(C(N)=O)=C(O)[C@@H](N(C)C)C3CC1C2.Cl.Cl (stereo partly drawn) [MM, [4S-(4alpha,12aalpha)]-4,7-Bis(dimethylamino)-1,4,4a,5,5a,6,11,12a-octahydro-3,10,12,12a-tetrahydroxy-9-[[(methylamino)acetyl]amino]-1,11-dioxo-2-naphthacenecarboxamide dihydrochloride] | 1 | 1 | 1 | 1 | 0.5 | 32 | 16 | 32 | 8 | 0.5 | 0.5 | 16 | 0.25 | 0.25 | 1 | 0.05 | 1 | 1 | 16 | 8 | % INHIBITION Wild Type S30 ([3]; 0.06 mg/ml): 95%; % INHIBITION Wild Type S30 ([3]; 0.2 mg/ml): 98%; % INHIBITION Wild Type S30 ([3]; 1.0 mg/ml): 99%; % INHIBITION TetM S30 ([5]; 0.06 mg/ml): 92%; % INHIBITION TetM S30 ([5]; 0.2 mg/ml): 97%; % INHIBITION TetM S30 ([5]; 1.0 mg/ml): 99%; Antibacterial activity (MIC) [11]: 0.5 µg/mL; Antibacterial activity (MIC) (E. coli J2175): 1 µg/mL; Antibacterial activity (MIC) [12]: 0.5 µg/mL; Antibacterial activity (MIC) (E. coli UBMS 90-5): 1 µg/mL; Antibacterial activity (MIC) [13]: 0.5 µg/mL; Antibacterial activity (MIC) (E. coli ATCC 25922): 1 µg/mL; Antibacterial activity (MIC) [14]: 1 µg/mL; Antibacterial activity (MIC) (S. mariescens FDOR 8733): 16 µg/mL; Antibacterial activity (MIC) [15]: 1 µg/mL; Antibacterial activity (MIC) [16]: 16 µg/mL; Antibacterial activity (MIC) (E. coli BAJ9003): 0.25 µg/mL |
| CN(C)c1cc(NC(=O)CNC2CCC2)c(O)c2c1CC1CC3C(N(C)C)C(O)=C(C(N)=O)C(=O)C3(O)C(O)=C1C2=O (stereo not drawn) [MMM, [4S-(4alpha,12aalpha)]-g-[[(Cyclobutylamino)acetyl]amino]-4,7-Bis(dimethylamino)-1,4,4a,5,5a,6,11,12a-octahydro-3,10,12,12a-tetrahydroxy-1,11-dioxo-2-naphthacenecarboxamide] | 0.5 | 0.25 | 0.25 | 0.25 | 0.25 | 4 | 4 | 8 | 0.5 | 0.25 | 0.5 | 32 | 0.25 | 0.24 | 0.06 | 0.12 | 0.25 | 0.24 | 4 | 0.5 | Antibacterial activity (MIC) [11]: 0.25 µg/mL; Antibacterial activity (MIC) (E. coli J2175): 0.25 µg/mL; Antibacterial activity (MIC) [12]: 0.25 µg/mL; Antibacterial activity (MIC) (E. coli UBMS 90-5): 0.5 µg/mL; Antibacterial activity (MIC) (E. coli UBMS 90-4 (tetM)): 0.25 µg/mL; Antibacterial activity (MIC) [13]: 0.12 µg/mL; Antibacterial activity (MIC) (E. coli ATCC 25922): 0.25 µg/mL; Antibacterial activity (MIC) [14]: 0.5 µg/mL; Antibacterial activity (MIC) (S. mariescens FDOR 8733): 8 µg/mL; Antibacterial activity (MIC) [15]: 0.5 µg/mL; Antibacterial activity (MIC) [16]: 4 µg/mL; Antibacterial activity (MIC) (E. coli BAJ9003): 0.03 µg/mL |
| CCNCC(=O)Nc1cc(N(C)C)c2c(c1O)C(=O)C1=C(O)[C@]3(O)C(=O)C(C(N)=O)=C(O)[C@@H](N(C)C)C3CC1C2.Cl.Cl (stereo partly shown) [OO] | 1 | 1 | 1 | 1 | 0.5 | 8 | 2 | 8 | 2 | 1 | 0.5 | 16 | 0.25 | 0.25 | 1 | 0.5 | 1 | 1 | 8 | 2 | % INHIBITION Wild Type S30 ([3]; 0.06 mg/ml): 94%; % INHIBITION Wild Type S30 ([3]; 0.2 mg/ml): 97%; % INHIBITION Wild Type S30 ([3]; 1.0 mg/ml): 99%; % INHIBITION TetM S30 ([5]; 0.06 mg/ml): 87%; % INHIBITION TetM S30 ([5]; 0.2 mg/ml): 95%; % INHIBITION TetM S30 ([5]; 1.0 mg/ml): 99%; Antibacterial activity (MIC) [11]: 1 µg/mL; Antibacterial activity (MIC) (E. coli J2175): 1 µg/mL; Antibacterial activity (MIC) [12]: 0.5 µg/mL; Antibacterial activity (MIC) (E. coli UBMS 90-5): 1 µg/mL; Antibacterial activity (MIC) (E. coli UBMS 90-4 (tetM)): 0.5 µg/mL; Antibacterial activity (MIC) [13]: 0.5 µg/mL; Antibacterial activity (MIC) (E. coli ATCC 25922): 1 µg/mL; Antibacterial activity (MIC) [14]: 1 µg/mL; Antibacterial activity (MIC) (S. mariescens FDOR 8733): 8 µg/mL; Antibacterial activity (MIC) [15]: 1 µg/mL; Antibacterial activity (MIC) [16]: 8 µg/mL; Antibacterial activity (MIC) (E. coli BAJ9003): 0.12 µg/mL |
| CN(C)c1cc(NC(=O)CN2CCCCC2)c(O)c2c1CC1CC3C(N(C)C)C(O)=C(C(N)=O)C(=O)C3(O)C(O)=C1C2=O.Cl.Cl (stereo not drawn) [UU, [7S-(7alpha,10aalpha)]-N-[9-(Aminocarbonyl)-4,7-bis(dimethylamino)-5,5a,6,6a,7,10,10a,12-octahydro-1,8,10a,11-tetrahydroxy-10,12-dioxo-2-naphthacenyl)-1-piperidineacetamide dihydrochloride] | 0.5 | 0.5 | 0.25 | 0.12 | 0.12 | 0.25 | 1 | 0.5 | 0.12 | 0.25 | 0.06 | 32 | 0.06 | 0.12 | 0.5 | 0.25 | 0.12 | 0.12 | 0.25 | 0.5 | Antibacterial activity (MIC) [11]: 0.25 µg/mL; Antibacterial activity (MIC) (E. coli J2175): 0.5 µg/mL; Antibacterial activity (MIC) [12]: 0.12 µg/mL; Antibacterial activity (MIC) (E. coli UBMS 90-5): 0.5 µg/mL; Antibacterial activity (MIC) (E. coli UBMS 90-4 (tetM)): 0.5 µg/mL; Antibacterial activity (MIC) [13]: 0.12 µg/mL; Antibacterial activity (MIC) (E. coli ATCC 25922): 0.25 µg/mL; Antibacterial activity (MIC) [14]: 0.25 µg/mL; Antibacterial activity (MIC) (S. mariescens FDOR 8733): 4 µg/mL; Antibacterial activity (MIC) [15]: 0.5 µg/mL; Antibacterial activity (MIC) [16]: 0.5 µg/mL; Antibacterial activity (MIC) (E. coli BAJ9003): 0.06 µg/mL |
